Experimental data from US5369016A, “Peptide amidase and the use thereof” (Forschungszentrum Juelich GmbH, priority 1990, dated 1994).
Read-outs that look alike come from different tables or passages of the source. One block for each compound: values may come before it. Peptide text beside a SMILES is read from it. * marks the point of attachment. pNA = O=[N+]([O-])c1ccc(N*)cc1; Cbz = O=C(OCc1ccccc1)*; Boc = CC(C)(C)OC(=O)*

Key:
[1] = test system: peptide amidase from orange flavedo; test: Cleavage of amides of amino acids (TLC); type: biochemical; parameters: scale not given here; settings: 50 μg/ml; 10 mM substrate; 24 h; 0.05M KPi, pH 7.5; * = slight traces
Experimental: A DEAE-purified enzyme was employed in these experiments (volumetric activity: 40 U/ml for the substrate For-Tyr-Arg-NH2).
from orange flavedo. (50 μg/ml; 10 mM substrate)
Eluent: pyridine/butanol/AcOH/H2 O (12:15:3:5).
Reaction: 24 h, RT; 0.05M KPi, pH 7.5., 30° C.
Blank sample without enzyme.

peptide amidase [2] = test: Enzymatic cleavage of N-terminal protected dipeptide amides; type: biochemical, orange
Excerpt: The results in Table 7 were obtained using an eluent: TBA/acetonitrile 60/40 (% volume)

peptide amidase [3] = test: Deamidation of N-terminal protected amino acid amides; type: biochemical, orange; settings: for Spec. Activity / Yield: 10 mM substrate, 50 μg.ml peptide amidase, pH 7.0, 30° C.; for Spec. Activity: 50 mM tris/HCl
Experimental: Separating conditions according to Example 3A were employed.
Eluent: TBA/acetonitrile 65:35 (90:10 for Bz-Arg-NH2)
Reaction conditions: 10 mM substrate; 50 μg.ml peptide amidase; 50 mM
tris/HCl; pH 7.0; Temperature 30° C.

peptide amidase [4] = test system: peptide amidase
Experimental: A reaction mixture comprising the following constituents was employed:
850 μl of the particular solvent/tris (50 mM; pH 7.5) mixture
100 μl of substrate (10 mM Z-Gly-Tyr-NH2)
50 μl of amidase (40 μg of protein)
The reaction was initiated by the addition of the enzyme to prevent inactivation of the enzyme prior to the reaction.

[5] = peptide amidase, pH 7, 10000 µM
[6] = enzymatic cleavage of the C-terminal amide
[7] = 89.1% solvent, substrate Z-Gly-Tyr-NH2

Reaction [1]: 0
Compound: CSCC[C@H](N)C(N)=O [Met--NH2]

Yield (peptide amidase [2]; peptide amidase): 20%
Compound: CC(C)C[C@H](NC(=O)OC(C)(C)C)C(=O)N[C@H](C(N)=O)C(C)C [Boc--Leu--Val--NH2] (Boc-Leu-Val-NH2)

Reaction [1]: 0
Compound: CC(C)[C@H](N)C(N)=O [Val--NH2]

Spec. Activity (peptide amidase [3]): 2.32 U/mg
Yield (peptide amidase [3]; 28 min): 32.4 %/28 min
Yield (peptide amidase [3]; 120 min): 100 %/2 h
Yield after 45 min (peptide amidase [3]; [5]): 48.9%
Compound: CC(=O)N[C@@H](Cc1c[nH]c2ccccc12)C(N)=O [Ac--Trp--NH2]

Reaction [1]: 0
Compound: C[C@@H](N)C(N)=O [D-Ala--NH2]

Reaction [1]: 0
Compound: N=C(N)NCCC[C@H](N)C(N)=O [Arg--NH2]

Reaction [1]: 0
Compound: C[C@H](N)C(N)=O [Ala--NH2]

Compound: Bz--Tyr--Ser--NH2
Yield (peptide amidase [2]; [6]): 41%

Spec. Activity (peptide amidase [3]): 6.34 U/mg
Yield (peptide amidase [3]; 28 min): 88.7 %/28 min
Yield (peptide amidase [3]; 120 min): 100 %/2 h
yield after 15 minutes (peptide amidase [3]; [5]): 47.6%
Yield (peptide amidase [2]; [6]): 100%
Compound: NC(=O)[C@H](Cc1ccc(O)cc1)NC(=O)c1ccccc1 [Bz--Tyr--NH2]

Compound: Bz--Tyr--Thr--NH2
Yield (peptide amidase [2]; [6]): 63%

Compound: Bz--Tyr--Val--NH2
Yield (peptide amidase [2]; [6]): 100%

Yield (peptide amidase [2]; peptide amidase): 100%
Compound: NC(=O)[C@H](Cc1ccccc1)NC(=O)[C@@H]1CCCN1C(=O)OCc1ccccc1 [Z--Pro--Phe--NH2] (Cbz-Pro-Phe-NH2)

Yield (peptide amidase [2]; peptide amidase): 100%
Compound: N=C(N)NCCC[C@H](NC(=O)[C@H](Cc1ccc(O)cc1)NC=O)C(N)=O [For--Tyr--Arg--NH2]

Compound: Mal--Tyr--Arg--NH2
Yield (peptide amidase [2]; [6]): 100%

Compound: CC(C)=O [Acetone]
Activity (peptide amidase [4]; 5.0% solvent): 2.011 U/mg
Activity (peptide amidase [4]; 18.0% solvent): 1.863 U/mg
Activity (peptide amidase [4]; 27.0% solvent): 1.748 U/mg
Activity (peptide amidase [4]; 36.0% solvent): 1.527 U/mg
Activity (peptide amidase [4]; 45.0% solvent): 1.38 U/mg
Activity (peptide amidase [4]; 72.0% solvent): 0.585 U/mg
Activity (peptide amidase [4]; [7]): 0.224 U/mg

Compound: Bz--Tyr--Leu--NH2
Yield (peptide amidase [2]; [6]): 100%

Spec. Activity (peptide amidase [3]): 0.37 U/mg
Yield (peptide amidase [3]; 28 min): 5.16 %/28 min
Yield (peptide amidase [3]; 120 min): 23.5 %/2 h
Yield after 45 min (peptide amidase [3]; [5]): 14.9%
Compound: NC(=O)[C@H](Cc1c[nH]c2ccccc12)NC(=O)OCc1ccccc1 [Z--Trp--NH2]

Activity (peptide amidase [4]; 5.0% solvent): 1.269 U/mg
Activity (peptide amidase [4]; 18.0% solvent): 0.938 U/mg
Activity (peptide amidase [4]; 27.0% solvent): 0.814 U/mg
Activity (peptide amidase [4]; 36.0% solvent): 0.613 U/mg
Activity (peptide amidase [4]; 45.0% solvent): 0.448 U/mg
Activity (peptide amidase [4]; 54.0% solvent): 0.284 U/mg
Activity (peptide amidase [4]; 63.0% solvent): 0.204 U/mg
Activity (peptide amidase [4]; 72.0% solvent): 0.149 U/mg
Activity (peptide amidase [4]; [7]): 0.083 U/mg
Compound: CCO [Ethanol]

Compound: Bz--Tyr--Ala--NH2
Yield (peptide amidase [2]; [6]): 65%

Compound: NCCCC[C@H](N)C(N)=O [Lys--NH2]
Reaction [1]: 0

Reaction [1]: 0
Compound: CC(C)C[C@@H](N)C(N)=O [D-Leu--NH2]

Reaction [1]: 0
Compound: NC(=O)[C@@H](N)Cc1cnc[nH]1 [His--NH2]

Reaction [1]: 0
Compound: NC(=O)[C@@H](N)Cc1c[nH]c2ccccc12 [Trp--NH2]

Reaction [1]: 0
Compound: NC(=O)[C@@H](N)CO [Ser--NH2]

Reaction [1]: 0
Compound: C[C@@H](O)[C@H](N)C(N)=O [Thr--NH2]

Reaction [1]: 0
Compound: NC(=O)[C@H](N)Cc1ccccc1 [D-Phe--NH2]

Reaction [1]: 0
Compound: NC(=O)[C@@H](N)Cc1ccc(O)cc1 [Tyr--NH2]

Reaction [1]: 0
Compound: CC(C)C[C@H](N)C(N)=O [Leu--NH2]

Compound: Bz--Tyr--Lys--NH2
Yield (peptide amidase [2]; [6]): 100%

Yield (peptide amidase [2]; peptide amidase): 100%
Compound: NC(=O)[C@H](Cc1ccccc1)NC(=O)CNC(=O)OCc1ccccc1 [Z--Gly--Phe--NH2] (Cbz-Gly-Phe-NH2)

Compound: Bz--Tyr--Ile--NH2
Yield (peptide amidase [2]; [6]): 100%

Compound: CCCO [Propanol]
Activity (peptide amidase [4]; 5.0% solvent): 0.927 U/mg
Activity (peptide amidase [4]; 18.0% solvent): 0.772 U/mg
Activity (peptide amidase [4]; 27.0% solvent): 0.474 U/mg
Activity (peptide amidase [4]; 36.0% solvent): 0.342 U/mg
Activity (peptide amidase [4]; 45.0% solvent): 0.12 U/mg
Activity (peptide amidase [4]; 54.0% solvent): 0.1 U/mg
Activity (peptide amidase [4]; 63.0% solvent): 0.1 U/mg
Activity (peptide amidase [4]; 72.0% solvent): 0.1 U/mg
Activity (peptide amidase [4]; [7]): 0.05 U/mg

Compound: Bz--Tyr--Trp--NH2
Yield (peptide amidase [2]; [6]): 39%

Compound: N=C(N)NCCC[C@H](NC(=O)OCc1ccccc1)C(=O)N[C@@H](CCCNC(=N)N)C(=O)Nc1ccc([N+](=O)[O-])cc1 [Z--Arg--Arg--pNa, reference compound] (Cbz-Arg-Arg-pNA)
reaction (in words) (peptide amidase [2]; comparison, 12 h): No reaction in 12 h
